The values that follow come from US6960611B2, “Sulfonyl-containing 2,3-diarylindole compounds, methods for making same, and methods of use thereof” (Institute of Materia Medica, priority 2002, dated 2005).

One series concerns the target T1, COX-2 (Mus musculus, UniProt Q05769).
T1 construct: endogenous in cells; host or cells: thioglycollate-elicited peritoneal macrophages of male C57BL-6J mice, stimulated with LPS
T1 sequence (Q05769 18-604): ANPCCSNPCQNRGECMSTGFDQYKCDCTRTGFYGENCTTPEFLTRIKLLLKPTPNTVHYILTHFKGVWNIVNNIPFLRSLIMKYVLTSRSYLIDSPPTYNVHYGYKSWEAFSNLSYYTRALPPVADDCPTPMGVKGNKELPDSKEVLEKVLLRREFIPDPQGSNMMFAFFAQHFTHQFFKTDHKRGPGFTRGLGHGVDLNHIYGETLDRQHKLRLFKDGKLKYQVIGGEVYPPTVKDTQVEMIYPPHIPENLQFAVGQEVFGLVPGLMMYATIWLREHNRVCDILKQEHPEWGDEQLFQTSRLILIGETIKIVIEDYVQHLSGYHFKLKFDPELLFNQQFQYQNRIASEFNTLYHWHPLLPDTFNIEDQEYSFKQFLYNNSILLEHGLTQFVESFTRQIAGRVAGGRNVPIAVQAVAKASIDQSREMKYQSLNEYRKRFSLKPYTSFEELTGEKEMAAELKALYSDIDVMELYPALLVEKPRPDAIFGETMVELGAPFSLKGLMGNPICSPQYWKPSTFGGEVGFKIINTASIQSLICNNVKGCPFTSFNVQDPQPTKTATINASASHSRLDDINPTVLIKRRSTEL
The series can be described thus: COX-2 assay: PGE2 release (RIA) from LPS-stimulated mouse peritoneal macrophages. The note with it: LPS 1 mg/L 9 h, PGE2 by RIA. It is filed as cell-based, mice. As to the method:
Cell culture: Adherent macrophages were harvested from the peritoneal cells of male mice (C57BL-6J, Level 2, from Experiment Animal Center, Academy of Military Medical Science) 3 d after the injection (ip) of brewer thioglycollate medium (5 mL/100 g body weight). […] Cell viability was examined by trypan blue dye exclusion. All incubation procedures were performed with 5% CO2 in humidified air at 37° C.
COX-2 assay: Macrophages were incubated with test compound at different concentrations or solvent (Me2SO) for 1 h and were stimulated with LPS 1 mg/L for 9 h. The amount of PGE2 in supernatants was measured by RIA. The inhibitory ratio was calculated using the same Formula as in COX-1 assay section. Cs, Ct, Cc refer to PGE2 concentration in supernatants of LPS, test compound, and control groups, respectively.
Statistical analysis: Data were expressed as the mean±SD of more than three independent experiments. Dose-inhibitory effect curves were fit through “uphill dose response curves, variable slope” using Prism, GraphPad (version 3.00): [formula]

For series [1], the system named is carrageenan-induced foot pad edema. The series can be described thus: Rat carrageenan-induced foot pad edema assay. It is filed as in vivo. The note with it: 10 mg/kg oral. As to the method:
Male Sprgue-Dawley rats (190-220 g ) were fasted with free access to water at least 16 h prior experiments. The rats were dosed orally with a 1 ml suspension of test compound in vehicle (0.5% methyl cellulose and 0.025% Tween-20) or with vehicle alone. One hour later a subplantar injection of 0.1 ml of 1% solution of carageenan in 0.9% strile saline was administered to the right hind foot pad. Paw volume was measured with a displacement plethysmometer 2, 3, and 4 h after carrageenan injection.

Broadly, the IC50 is the concentration that inhibits the measured activity by half. Usually melting point stands for the temperature, or range, at which the solid turns liquid. Take `CS(=O)(=O)c1ccc(-c2[nH]c3ccccc3c2-c2ccc(Cl)cc2)cc1` [Example 61, 2-(4-methylsulfonylphenyl)-3-(4-chlorophenyl)indole]: the melting point fell in the range of 198.5 to 200.5 °C. Further, half-maximal inhibition on COX-2 (IC50) required 146 nM. The edema (paw volume increase) in series [1] (2 h after carrageenan) turned out to be 14.6 ± 7.8%. Further, in series [1] (3 h after carrageenan), the edema (paw volume increase) was 30.6 ± 10% and the “inhibitory percentage of edema” value amounted to 51.1%. In series [1] (4 h after carrageenan), the edema (paw volume increase) was 25.7 ± 10.1% and the “inhibitory percentage of edema” value was found to be 50.4%.

As to `NS(=O)(=O)c1ccc(-c2[nH]c3ccccc3c2-c2ccc(Cl)cc2)cc1` [Example 62, 2-(4-aminosulfonylphenyl)-3-(4-chlorophenyl)indole], the melting point was in the range of 298 to 300 °C. It took 33.5 nM to reach half-maximal inhibition on COX-2 (IC50). This compound displayed an edema (paw volume increase) in series [1] (2 h after carrageenan) of 16.6 ± 6.5%. For the same compound, in series [1] (3 h after carrageenan), the edema (paw volume increase) is 41.3 ± 13.7% and the “inhibitory percentage of edema” value came to 24.2%. Besides, in series [1] (4 h after carrageenan), the edema (paw volume increase) came to 38.6 ± 14.9% and the “inhibitory percentage of edema” value is on record as 25.6%.

In the case of `CS(=O)(=O)c1ccc(-c2[nH]c3ccccc3c2-c2ccc(Br)cc2)cc1` [Example 63, 2-(4-methylsulfonylphenyl)-3-(4-bromophenyl)indole], the melting point is 225 to 226 °C. Moreover, 0.369 nM corresponded to half-maximal inhibition on COX-2 (IC50). Besides, in series [1] (2 h after carrageenan), the edema (paw volume increase) is 27.1 ± 10.1%. Also, in series [1] (3 h after carrageenan), the edema (paw volume increase) was 55.3 ± 17% and the “inhibitory percentage of edema” value is 11.6%. In series [1] (4 h after carrageenan), the edema (paw volume increase) was 43.6 ± 9.5% and the “inhibitory percentage of edema” value came out at 16.1%.

`Cc1ccc(-c2c(-c3ccc(S(C)(=O)=O)cc3)[nH]c3ccccc23)cc1` [Example 65, 2-(4-methylsulfonylphenyl)-3-(4-methylphenyl)indole] showed a melting point of 197 to 198 °C. Besides, at COX-2, the 50% inhibitory concentration (IC50) was 0.0896 nM. For the same compound, in series [1] (2 h after carrageenan), the edema (paw volume increase) worked out at 18.5 ± 8.1%. Also, in series [1] (3 h after carrageenan), the edema (paw volume increase) was determined as 35.8 ± 6.8% and the “inhibitory percentage of edema” value amounted to 42.8%. Besides, in series [1] (4 h after carrageenan), the edema (paw volume increase) came out at 27.4 ± 7.1% and the “inhibitory percentage of edema” value was 47.2%.

As for `Cc1ccc(-c2c(-c3ccc(S(C)(=O)=O)cc3)[nH]c3ccccc23)cc1C` [Example 67, 2-(4-methylsulfonylphenyl)-3-(3,4-dimethylphenyl)indole], the melting point lay in the range of 206 to 207 °C. On COX-2, this compound came in with an IC50 of 0.166 nM. The same compound showed an edema (paw volume increase) in series [1] (2 h after carrageenan) of 25.6 ± 13.4%. Besides, in series [1] (3 h after carrageenan), the edema (paw volume increase) was determined as 43.9 ± 11% and the “inhibitory percentage of edema” value turned out to be 29.8%. Further, in series [1] (4 h after carrageenan), the edema (paw volume increase) stood at 29.5 ± 12% and the “inhibitory percentage of edema” value is listed as 43.1%.

For `COc1ccc(-c2c(-c3ccc(S(C)(=O)=O)cc3)[nH]c3ccccc23)cc1` [Example 69, 2-(4-methylsulfonylphenyl)-3-(4-methoxyphenyl)indole], the melting point was in the range of 218.5 to 220.5 °C. The compound further showed an IC50 against COX-2 of 0.022 nM. The compound also registered an edema (paw volume increase) in series [1] (2 h after carrageenan) of 21.6 ± 12.4%. Also, in series [1] (3 h after carrageenan), the edema (paw volume increase) worked out at 43.4 ± 12.1% and the “inhibitory percentage of edema” value is recorded as 30.6%. Also, in series [1] (4 h after carrageenan), the edema (paw volume increase) stood at 37.8 ± 10.7% and the “inhibitory percentage of edema” value was found to be 27.1%.

`NS(=O)(=O)c1ccc(-c2[nH]c3ccccc3c2-c2ccc(F)cc2)cc1` [Example 72, 2-(4-aminosulfonylphenyl)-3-(4-Fluorophenyl)indole] yielded a melting point of 228 to 230 °C. In addition, the IC50 against COX-2 is 5.15 nM. The compound further had an edema (paw volume increase) in series [1] (2 h after carrageenan) of 32.8 ± 13.2%. Moreover, in series [1] (3 h after carrageenan), the edema (paw volume increase) stood at 36.4 ± 16.9% and the “inhibitory percentage of edema” value is reported as 40.5%. For the same compound, in series [1] (4 h after carrageenan), the edema (paw volume increase) stood at 35.4 ± 11.3% and the “inhibitory percentage of edema” value is 41.2%.

As to `NS(=O)(=O)c1ccc(-c2[nH]c3ccc(Cl)cc3c2-c2ccccc2)cc1` [Example 75, 2-(4-aminosulfonylphenyl)-3-phenyl-5-chloroindole], the melting point is 297 to 299 °C. This compound also displayed an IC50 against COX-2 of 0.143 nM. Also, in series [1] (2 h after carrageenan), the edema (paw volume increase) came out at 35.6 ± 25.5% and the “inhibitory percentage of edema” value was determined as 50.1%. Also, in series [1] (3 h after carrageenan), the edema (paw volume increase) is 44.1 ± 31.4% and the “inhibitory percentage of edema” value was determined as 54.8%. Further, in series [1] (4 h after carrageenan), the edema (paw volume increase) came out at 34 ± 13.6% and the “inhibitory percentage of edema” value is 57.8%.

`CS(=O)(=O)c1ccc(-c2[nH]c3ccc(F)cc3c2-c2ccccc2)cc1` [Example 79, 2-(4-methylsulfonylphenyl)-3-phenyl-5-fluoroindole]: the melting point lay in the range of 243 to 245 °C. On COX-2, this compound registered an IC50 of 5 nM. For the same compound, in series [1] (2 h after carrageenan), the edema (paw volume increase) amounted to 41.8 ± 7.2% and the “inhibitory percentage of edema” value was determined as 41.4%. In series [1] (3 h after carrageenan), the edema (paw volume increase) came to 47.7 ± 15.8% and the “inhibitory percentage of edema” value was 51.5%. In addition, in series [1] (4 h after carrageenan), the edema (paw volume increase) came out at 31.6 ± 13.3% and the “inhibitory percentage of edema” value turned out to be 60.8%.

The compound `NS(=O)(=O)c1ccc(-c2[nH]c3ccc(F)cc3c2-c2ccccc2)cc1` [Example 80, 2-(4-aminosulfonylphenyl)-3-phenyl-5-fluoroindole] returned a melting point of 302 to 304 °C. Besides, at COX-2, the midpoint of inhibition, the IC50, lay at 2 nM. In series [1] (2 h after carrageenan), the edema (paw volume increase) was 36.7 ± 7.4% and the “inhibitory percentage of edema” value stood at 48.6%. Besides, in series [1] (3 h after carrageenan), the edema (paw volume increase) worked out at 46.6 ± 14% and the “inhibitory percentage of edema” value was 52.2%. Besides, in series [1] (4 h after carrageenan), the edema (paw volume increase) was found to be 40.8 ± 17.6% and the “inhibitory percentage of edema” value came to 49.4%.

`Cc1ccc2[nH]c(-c3ccc(S(N)(=O)=O)cc3)c(-c3ccccc3)c2c1` [Example 84, 2-(4-aminosulfonylphenyl)-3-phenyl-5-methylindole]: the melting point was 242 to 244 °C. At COX-2, this compound displayed an IC50 of 0.0171 nM. In series [1] (2 h after carrageenan), the edema (paw volume increase) turned out to be 63.1 ± 18.1% and the “inhibitory percentage of edema” value is 40.5%. Also, in series [1] (3 h after carrageenan), the edema (paw volume increase) came to 65.6 ± 15.4% and the “inhibitory percentage of edema” value is 32.8%. Besides, in series [1] (4 h after carrageenan), the edema (paw volume increase) came to 62.4 ± 15.7% and the “inhibitory percentage of edema” value was found to be 22.6%.

In turn, `CS(=O)(=O)c1ccc(-c2c(-c3ccccc3)[nH]c3ccc(Cl)cc23)cc1` [Example 87, 2-phenyl-3-(4-methylsulfonylphenyl)-5-chloroindole] had a melting point of 273 to 275 °C. Half-maximal inhibition against COX-2 (IC50) required 0.27 nM. In series [1] (2 h after carrageenan), this compound had an edema (paw volume increase) of 45.4 ± 9.7%. For the same compound, in series [1] (3 h after carrageenan), the edema (paw volume increase) amounted to 46.9 ± 13.6% and the “inhibitory percentage of edema” value amounted to 23.4%. Moreover, in series [1] (4 h after carrageenan), the edema (paw volume increase) was found to be 43.4 ± 13.4% and the “inhibitory percentage of edema” value is 27.9%.

`CS(=O)(=O)c1ccc(-c2c(-c3ccc(Cl)cc3)[nH]c3ccc(Cl)cc23)cc1` [Example 89, 2-(4-chlorophenyl)-3-(4-methylsulfonylphenyl)-5-chloroindole] yielded a melting point of 269 to 271 °C. Also, at COX-2, the IC50 was 354 nM. This compound also yielded an edema (paw volume increase) in series [1] (2 h after carrageenan) of 58.6 ± 15.8%. For the same compound, in series [1] (3 h after carrageenan), the edema (paw volume increase) came to 66.5 ± 13.4% and the “inhibitory percentage of edema” value is 46.1%. For the same compound, in series [1] (4 h after carrageenan), the edema (paw volume increase) stood at 58.4 ± 13.8% and the “inhibitory percentage of edema” value was 29.9%.
